Measured values taken from patent US7491819B1 (priority 2004, dated 2009).
Read-outs that look alike come from different tables or passages of the source.

Experiments:
HIV-integrase = molecular target: T1, HIV-integrase (Human immunodeficiency virus type 1 group M subtype B, UniProt P12497); test: HIV-Integrase Inhibition Activity (SPA bead strand-transfer assay); type: biochemical
T1 construct: Recombinant integrase (0.26 ng) was incubated with the beads
In short: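 Biotin-labelled substrate DNA (5 pmole) bound to streptavidin SPA beads, preloaded with recombinant integrase (0.26 ng) for 90 min at 37° C, then washed. Inhibitors and 0.1 fmol P33-labelled target DNA added; reaction stopped with 10 mM EDTA. Integration read as scintillation CPM.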

NL-Rluc virus = test: Inhibition of HIV replication (recombinant NL-Rluc virus, luciferase); type: cell-based; details: Human immunodeficiency virus 1, read-out: Inhibition of HIV replication
[1] = Table 1, read-out: Activity (HIV-integrase inhibition, IC50 class)
[2] = Table 2a, read-out: HIV-Integrase Inhibition Activity

Row | Compound | IC50 (HIV-integrase; [1]) [nM] | melting point [°C] | IC50 (HIV-integrase; [2]) [nM] | EC50 (NL-Rluc virus) [nM]
1 | CCOP(=O)(OCC)c1cc(F)ccc1CNC(=O)c1nc2n(c(=O)c1O)CCOC2(C)C [Example 213, Phosphonic acid, [5-fluoro-2-[[[(4,6,7,9-tetrahydro-3-hydroxy-9,9-dimethyl-4-oxopyrimido[2,1-c][1,4]oxazin-2-yl)carbonyl]amino]methyl]phenyl]-, diethyl ester] | 2 to 100 | 124 |  | 
2 | CC1OCCn2c1nc(C(=O)NCc1ccc(F)cc1)c(O)c2=O (stereo not shown) [Example 4, Pyrimido[2,1-c][1,4]oxazine-2-carboxamide, N-[(4-fluorophenyl)methyl]-4,6,7,9-tetrahydro-3-hydroxy-9-methyl-4-oxo-] | 2 to 100 | 165 to 167 |  | 
3 | CC1OCCn2c1nc(C(=O)NCc1ccc(Cl)c(Cl)c1)c(O)c2=O (stereo not shown) [Example 6, Pyrimido[2,1-c][1,4]oxazine-2-carboxamide, N-[(3,4-dichlorophenyl)methyl]-4,6,7,9-tetrahydro-3-hydroxy-9-methyl-4-oxo-] | 2 to 100 | 192 |  | 
4 | O=C(NCc1ccc(F)cc1)c1nc2n(c(=O)c1O)CCOC2 [Example 1, Pyrimido[2,1-c][1,4]oxazine-2-carboxamide, N-[(4-fluorophenyl)methyl]-4,6,7,9-tetrahydro-3-hydroxy-4-oxo-] | 2 to 100 | 211 |  | 
5 | COc1ncccc1-c1cc(F)ccc1CNC(=O)c1nc2n(c(=O)c1O)CCOC2(C)C [Example 76, Pyrimido[2,1-c][1,4]oxazine-2-carboxamide, N-[[4-fluoro-2-(2-methoxy-3-pyridinyl)phenyl]methyl]-4,6,7,9-tetrahydro-3-hydroxy-9,9-dimethyl-4-oxo-] | 2 to 100 | 227 |  | 
6 | Cc1cc(CNC(=O)c2nc3n(c(=O)c2O)CCOC3C)ccc1F (stereo not shown) [Example 5, Pyrimido[2,1-c][1,4]oxazine-2-carboxamide, N-[(4-fluoro-3-methylphenyl)methyl]-4,6,7,9-tetrahydro-3-hydroxy-9-methyl-4-oxo-] | 2 to 100 | 134 |  | 
7 | CC1OCCn2c1nc(C(=O)NCc1ccc(F)c(Cl)c1)c(O)c2=O (stereo not shown) [Example 7, Pyrimido[2,1-c][1,4]oxazine-2-carboxamide, N-[(3-chloro-4-fluorophenyl)methyl]-4,6,7,9-tetrahydro-3-hydroxy-9-methyl-4-oxo-] | 2 to 100 | 172 |  | 
8 | Cc1nnn(-c2cc(F)ccc2CNC(=O)c2nc3n(c(=O)c2O)CCOC3(C)C)c1C [Example 298, Pyrimido[2,1-c][1,4]oxazine-2-carboxamide, N-[[2-(4,5-dimethyl-1H-1,2,3-triazol-1-yl)-4-fluorophenyl]methyl]-4,6,7,9-tetrahydro-3-hydroxy-9,9-dimethyl-4-oxo-] |  |  | 2 to 100 | 3 to 100
9 | CC(C)(C)c1cn(-c2cc(F)ccc2CNC(=O)c2nc3n(c(=O)c2O)CCOC3(C)C)nn1 [Example 297, Pyrimido[2,1-c][1,4]oxazine-2-carboxamide, N-[[2-[4-(1,1-dimethylethyl)-1H-1,2,3-triazol-1-yl]-4-fluorophenyl]methyl]-4,6,7,9-tetrahydro-3-hydroxy-9,9-dimethyl-4-oxo-] |  |  | 2 to 100 | 3 to 100
10 | Cc1cc(CNC(=O)c2nc3n(c(=O)c2O)CCOC3)ccc1F [Example 2, Pyrimido[2,1-c[]1,4]oxazine-2-carboxamide, N-[(4-fluoro-3-methylphenyl)methyl]-4,6,7,9-tetrahydro-3-hydroxy-4-oxo-] | 2 to 100 | 206 to 208 |  | 
11 | Cc1ncn(-c2cc(F)ccc2CNC(=O)c2nc3n(c(=O)c2O)CCCOC3(C)C)n1 [Example 317, 6H-Pyrimido[2,1-c][1,4]oxazepine-2-carboxamide, N-[[4-fluoro-2-(3-methyl-1H-1,2,4-triazol-1-yl)phenyl]methyl]-4,7,8,10-tetrahydro-3-hydroxy-10,10-dimethyl-4-oxo-] |  |  | 2 to 100 | 3 to 100
